# pIC50: −log10 of the molar value.
# Tests used:
# [1] = tested on: RSV A2 (PRNT1); assay: RSV plaque reduction assay, A2 (PRNT1), Vero cells; assay type: cell-based, respiratory syncytial virus; conditions: n = 4
# Protocol: Plaque Reduction Assay: […] After an overnight incubation at 37° C. in a humidified 5% CO2 atmosphere, the monolayer of cells should be approximately 90% confluent. Antiviral compounds were titrated in pre-warmed Serum Free (SF) Optimem in a U-bottom 96 well plate. […] Media was then removed from cells and replaced with PBS (100 μl/well). RSV stock was thawed and diluted in SF Optimem media to 4000 PFU/mLl. An equal volume of virus was added to compounds on the titration plate. PBS was removed from cells which were then inoculated with the virus/compound solution (50 μL/well). Cells were incubated for 2 h in a 37° C.+5% CO2 humidified incubator to allow infection. […] Immunostaining Procedure: Media was removed from cells and the monolayer washed with PBS. Cells were fixed with ice cold 80% Acetone in PBS (100 μl/well) for 20 mins at −20° C. […] Blocking solution was removed and plates washed once with PBS-T. Primary antibody in blocking solution was added to plates (50 μl/well) and incubated for 1 h at 37° C. Plates were then washed 3 times with PBS-T. Secondary antibody in blocking solution was added to plates (50 μL/well) and incubated for 1 h at 37° C. in the dark. […] Plates were scanned on the Odyssey Imager (Li-Cor Biosciences) at a resolution of […], medium quality and level 5 intensity in the […]. Data Analysis: Images obtained were saved and plaque numbers counted with the aid of computer imaging software. EC50 values for compounds were derived from dose response curves [three variable log (inhibitor) vs response] obtained using Graphpad Prism software.
# [2] = In vivo pharmacokinetics in rats (IV and PO); set-up: species or system male Sprague Dawley rats; conditions: male Sprague Dawley rats, 1 mg/kg (IV)
# Protocol: The pharmacokinetics of compounds were studied in vivo in male Sprague Dawley rats at doses of 1 mg/kg (IV) and 10 mg/kg (PO).
# Sprague Dawley rats were treated with experimental compounds via intravenous and oral administration. Three animals for each route of administration were used with serial blood sampling at ten time points post dosing of compound.
# Animals were weighed and used if between 200-250 g. Serial blood samples were collected at 0.02, 0.08, 0.25, 0.50, 1, 2, 4, 6, 8 and 24 hours post dosing. […] Blood samples were delivered into an anticoagulant (sodium heparin) and centrifuged at 4° C. Plasma samples were subsequently stored frozen at less than −20° C. prior to analysis.
# Following protein precipitation with acetonitrile, samples were analysed with tandem liquid chromatography/mass spectrometry using electrospray ionisation. A full matrix curve with internal standards was employed and PK parameters were calculated.
# In a similar manner, oral administration was performed by gavage at doses of 5 or 10 mg/kg at a concentration of 5 mg/ml in 1% Methyl cellulose (Sigma M7140), 0.1% Tween 80 in water. Serial samples were taken as described above.
# RV039 was administered at doses of 1 mg/kg (IV) and 5 mg/kg (PO).
# [3] = Liver microsomal stability, human; assay type: in vitro ADME; conditions: both sexes, pooled liver microsomes, pH 7.4, 3 μM compound, read-out: Liver Microsomal Stability T1/2, human
# Protocol: (§1) Microsomal Incubation: Experimental Procedure
# (§2) Pooled human liver microsomes (pooled male and female), pooled rat liver microsomes (male Sprague Dawley rats) and pooled dog liver microsomes (male Beagle dog) are purchased from a reputable commercial supplier and stored at −80° C. prior to use.
# (§3) Microsomes (final protein concentration 0.5 mg/mL), 0.1 M phosphate buffer pH 7.4 and test compound (final substrate concentration 3 μM; final DMSO concentration 0.25%) are pre-incubated at 37° C. prior to the addition of NADPH (final concentration 1 mM) to initiate the reaction. The final incubation volume is 50 μL. A control incubation is included for each compound tested where 0.1 M phosphate buffer pH 7.4 is added instead of NADPH (minus NADPH). Two control compounds are included with each species. All incubations are performed singularly for each test compound.
# (§4) Compounds are incubated for 0, 5, 15, 30 and 45 min. The control (minus NADPH) is incubated for 45 min only. The reactions are stopped by transferring 25 μL of incubate to 50 μL methanol at the appropriate time points. The termination plates are centrifuged at 2,500 rpm for 20 min at 4° C. to precipitate the protein. Following protein precipitation, the sample supernatants are combined in cassettes of up to 4 compounds, internal standard is added and samples analysed by LC-MS/MS. From a plot of ln peak area ratio (compound peak area/internal standard peak area) against time, the gradient of the line is determined. Subsequently, half-life and intrinsic clearance are calculated
# [4] = Liver microsomal stability, rat; assay type: in vitro ADME; conditions: male, Sprague Dawley, read-out: Liver Microsomal Stability T1/2, rat
# Protocol: as §1, §2
# The final incubation volume is 50 μL. A control incubation is included for each compound tested where 0.1 M phosphate buffer pH 7.4 is added instead of NADPH (minus NADPH). Two control compounds are included with each species. All incubations are performed singularly for each test compound.
# as §4, with “The” for “Compounds are incubated for 0, 5, 15, 30 and 45 min. The control (minus NADPH) is incubated for 45 min only. The”
# [5] = Liver microsomal stability, dog; assay type: in vitro ADME; conditions: male, Beagle, pooled liver microsomes, pH 7.4, 3 μM compound, read-out: Liver Microsomal Stability T1/2, dog
# Protocol: as §1, §2, §3, §4
# [6] = human respiratory syncytial virus, Vero
"pIC50 [1, 6]",half-life at 3 μM [3],"half-life at 3 μM ([4]; pooled liver microsomes, pH 7.4, 3 μM compound)",half-life at 3 μM [5],"half-life at 3 μM ([4]; pH 7.4, rat liver microsomes, 3 μM compound)",SMILES,pIC50 [1],Volume of distribution [2]
,,,,,"CC(C)CCn1c(CN2C(=O)C3(CC3)c3cccnc32)nc2cc(CN)ccc21 [Example 5, 1′-((5-(aminomethyl)-1-isopentyl-1H-benzo[d]imidazol-2-yl)methyl)[spirocyclopropane-1,3′-pyrrolo[2,3-b]pyridin]-2′(1′H)-one]",8.28,Example 5: 8.2 L/kg
8.64,3.82 h,2.08 h,18.3 h,,"CC(C)CCn1c(CN2C(=O)C3(CC3)c3ccncc32)nc2cc(CN)ccc21 [Example 6, 1′-((5-(aminomethyl)-1-isopentyl-1H-benzo[d]imidazol-2-yl)methyl)spiro[cyclopropane-1,3′-pyrrolo[2,3-c]pyridin]-2′(1′H)-one]",,
8.80,0.557 h,,55.8 h,4.1 h,"NCc1ccc2c(c1)nc(CN1C(=O)C3(CC3)c3ccc(F)cc31)n2C1CCOCC1 [Example 7, 1′-((5-(aminomethyl)-1-(tetrahydro-2H-pyran-4-yl)-1H-benzo[d]imidazol-2-yl)methyl)-6′-fluorospiro[cyclopropane-1,3′-indolin]-2′-one]",,
,,,,,"NCc1ccc2c(c1)nc(CN1C(=O)C3(CC3)c3ccc(F)cc31)n2C1CCC(O)CC1 [Example 8, 1′-((5-(Aminomethyl)-1-((1R,4R)-4-hydroxycyclohexyl)-1H-benzo[d]imidazol-2-yl)methyl)-6′-fluorospiro[cyclopropane-1,3′-indolin]-2′-one]",8.32,

# Reference: patent US10106539B2, “Spiro-indolines for the treatment and prophylaxis of respiratory syncytial virus infection (RSV)” (REVIRAL LIMITED, priority 2014, dated 2018)
